According to patent US6756504B2, “Sphingolipids” (Yissum Research Development Company of the Hebrew …, priority 2000, dated 2004):
pIC50: −log10 of the molar value. Blank lines part the entries; values can stand above or below the compound they belong to.

Experiments:
acid sphingomyelinase = target: T1, acid sphingomyelinase (Homo sapiens, UniProt P17405); test: Acid sphingomyelinase inhibition, HL60 sonicate; type: biochemical; details: pH 5.0, 300 μM
T1 construct: a sonicate of HL60 leukemic cells was used as enzyme source; endogenous in cells; host or cells: HL60 leukemic cells (sonicate)
T1 sequence (P17405 47-631): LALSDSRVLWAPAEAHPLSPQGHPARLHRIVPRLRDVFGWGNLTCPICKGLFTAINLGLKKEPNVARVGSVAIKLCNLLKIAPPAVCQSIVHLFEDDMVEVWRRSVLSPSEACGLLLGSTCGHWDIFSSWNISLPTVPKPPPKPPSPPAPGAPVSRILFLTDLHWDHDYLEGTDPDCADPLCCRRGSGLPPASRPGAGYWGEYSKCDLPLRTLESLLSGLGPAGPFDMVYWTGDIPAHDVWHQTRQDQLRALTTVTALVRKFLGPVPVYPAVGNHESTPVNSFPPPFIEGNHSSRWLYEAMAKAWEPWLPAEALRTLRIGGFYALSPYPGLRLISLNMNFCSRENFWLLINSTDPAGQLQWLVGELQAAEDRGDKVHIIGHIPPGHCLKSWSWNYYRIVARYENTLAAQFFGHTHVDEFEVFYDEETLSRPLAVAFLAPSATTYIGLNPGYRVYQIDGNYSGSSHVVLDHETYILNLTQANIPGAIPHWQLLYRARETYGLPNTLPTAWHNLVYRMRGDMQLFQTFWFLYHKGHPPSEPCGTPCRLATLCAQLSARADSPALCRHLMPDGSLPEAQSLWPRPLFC
Protocol: (§1) N-hexyl-sphingosyl phosphorylcholine (AD-2144) was tested as to its inhibitory effect on sphingomyelinases, acidic (i.e., with an optimum at about pH 5) or neutral (with a pH optimum at about pH 7.4). For this purpose a sonicate of HL60 leukemic cells was used as enzyme source. Increasing concentrations of AD-2144 were dispersed by a mixture of fluorescent and non-fluorescent sphingomyelin (Bodipy-C12-SPM:SPM, 1:19), buffer and 0.25% Triton-X10O in a volume of 100 μl. For acid sphingomyelinase 0.4M acetate buffer pH 5.0 was used; for neutral sphingomyelinase 0.2M Tris buffer, pH 7.4 and 5 mM magnesium chloride. To 100 μl of these dispersions, 100 μl of HL60 cells sonicate were added. Incubation was 2-3 hours after which 0.8 ml of chloroform:methanol 2:1 were added, stirred and the lower, chloroform phase was collected, dried and applied to a thin layer chromatography plate. The plate was developed in a mixture of chloroform and methanol, 87:3. The fluorescence of the product, i.e., Bodipy-C12-ceramide, was quantified.

neutral sphingomyelinase = test: Neutral sphingomyelinase inhibition, HL60 sonicate; type: biochemical, Human; details: pH 7.4, 300 μM
Protocol: as §1

HL60 cells [1] = test: HL60 total protein content (Bradford); type: cell-based, Human
Protocol: (§2) HL60: Human leukemia cell line (ATCC CCL-240).
The effect of the AD-2646 compound on cell viability was further supported when the total protein content was quantified. HL60 cells were incubated as described above, with different concentrations of AD-2646. After 2 days the cells were collected, washed twice with saline, dispersed and following a short pulsing with a probe-sonicator their protein content was quantified by the Bradford procedure. Similarly to the viable cell counting results, the protein measurements indicated an IC50 value of 5 μM.
To analyze whether the AD-2646 compound may mediate its effect on cell viability and on total protein content, in cooperation with other compounds, the cooperative effect of this compound and Taxol was next evaluated. HL60 cells were incubated for two days with 4 μM AD2646 in the presence or absence of 2 ng Taxol.
The effect of different compounds of the invention on cell viability was next evaluated by measuring total cell protein quantity. Different cell lines were incubated for two days in the presence of increasing concentrations of the different compounds of the present invention.

HL60 cells [2] = test: Apoptosis in HL60 cells, propidium iodide flow cytometry (FACS); type: cell-based, Human
Protocol: The apoptotic effect of three different compounds was further examined on HL60 cells using a flow cytometry method. […] Washed cells were then treated with 5% Triton and stained with propidium iodide 0.5% mg in 0.1% sodium citrate pH 7.4. Analysis was performed using a Becton Dickinson Fluorescence Activated Cell Sorter (FACS).

HL60 cells [3] = test: HL60 cell viability, viable cell count (trypan blue); type: cell-based, Human; details: HL60, 2 days, FIG. 1, read-out: IC50, number of living (non-blue) cells
Protocol: as §2
The effect of AD-2646 on cell viability was analyzed by measuring cell mortality (viable cell count) and/or total protein quantity.
HL60 cells grown in RMPI plus 10% fetal calf serum, were incubated with increasing concentrations of (2R,3R)-2-(N-tetradecylamine)-1-(4-nitro-phenyl)-1,3-propanediol (AD-2646) in 6- or 24-well dishes. […] After 2 days the cells were collected, washed twice with saline, treated with trypan blue and the number of living (non-blue) cells was counted. FIG. 1 indicates an IC50 value of 5 μM.
Kinetic of the observed killing effect of the AD-2646 compound was next examined. HL60 cells were incubated with 40 μM of AD-2646 for 1, 3, 5 and 7 hours. Already after 1 hour a reduction of 60% of the viable cell number was observed.

[4] = system: Bod3-SPM synthesis in TSU-PR1 prostate cancer cells; test: Sphingolipid metabolism: Bod3-SPM in TSU-PR1; type: cell-based; details: TSU-PR1, 3 hours, FIG. 5; read-out: IC50 for reduction of Bod3-SPM
Protocol: (§3) In order to examine the effect of the different compounds on sphingolipids metabolism, different cell lines were incubated with increasing concentrations of different compounds of the invention in the presence of 2.5 μM Bodipy-C3-ceramide that was added to the culture medium as a solution in dimethylsulfoxide (not exceeding 0.1% DMSO of the final volium). After 3 hours, cells and medium were collected and centrifuged. Cells were next extracted with chloroform-methanol containing 2% acetic acid 1:1 (by volume) and the medium was shaken with an equal volume of chloroform-methanol, 1:1 (by volume). The phases were separated by centrifugation and the lower chloroform phase was collected. The solvents were evaporated and applied to thin layer chromatography silica gel plates (Whatman 4865-821) with a concentrating zone.
(§4) Plates were developed as follows: For medium: in chloroform-methanol-H2O, 75:25:4 by volume. For cells: plates were first developed with chloroform-methanol, 9:1, then dried and re-run in chloroform-methanol: H2O, 65:35:4.
(§5) Standards of Bodipy-C3-ceramide: Bodipy-C3-glucosylceramide (Bod3-GC) and Bodipy C3 sphingomyelin (Bod3-SPM) were used as markers. The fluorescence of the respective Bod3-SPM and Bod3-GC spots was quantified using a Fuji FLA-2000 scanner.
The effect of AD-2646 on sphingolipid metabolism was further examined using TSU-PR1 prostate cancer cells.

[5] = system: Bod3-GC (glucosylceramide) synthesis in HL60 cells; test: Sphingolipid metabolism from Bodipy-C3-ceramide: Bod3-GC in HL60; type: cell-based, Human; details: HL60, 3 hours, 2.5 μM Bodipy-C3-ceramide; read-out: od 3-GC (IC50 for Bod3-GC reduction)
Protocol: as §3, §4, §5

[6] = system: Bod3-SPM (sphingomyelin) synthesis in HL60 cells; test: Sphingolipid metabolism from Bodipy-C3-ceramide: Bod3-SPM in HL60; type: cell-based, Human; details: HL60, 3 hours, 2.5 μM Bodipy-C3-ceramide; read-out: od 3-SPM (IC50 for reduction of Bod3-SPM, cell+medium)
Protocol: as §3, §4, §5

Swiss mice = test: In vivo toxicity of AD-2646, mice viability
Protocol: Six groups, each of 5 Swiss mice were injected, intra-peritoneally with solutions of AD-2646, at varying concentrations, each in a volume of 100 μl. Injections were performed on days 1, 2, 3, 4, and mice viability was tested (Table 5).

[7] = system: Bod3-SPM synthesis in MCF-NCi cells; test: Sphingolipid metabolism: Bod3-SPM in MCF-NCi; type: cell-based, Human; details: 3 hours, 2.5 μM Bodipy-C3-ceramide, read-out: od 3-SPM (IC50 for reduction of Bod3-SPM)
Protocol: as §3, §4, §5

[8] = HL60, two days, 4 μM AD-2646 plus 2 ng Taxol

Compound: CCCCCCCCCCCCC/C=C/[C@H](O)[C@@H](COP(=O)([O-])OCC[N+](C)(C)C)NCCCCCC [AD-2144, L-Erythro Sphingosyl Phosphorylcholine-N-Hexyl]
- reduction in Bodipy-C12-ceramide (acid sphingomyelinase): over 60%
- reduction in Bodipy-C12-ceramide (neutral sphingomyelinase): over 60%

- pIC50 (HL60 cells [1]; HL60, 2 days, Bradford, read-out: IC50, protein content): 5.30
- pIC50 (HL60 cells [3]): 5.30
- pIC50 [4]: ~5.30
- pIC50 [5]: 4.92
- pIC50 [6]: ~5.22
Compound: CCCCCCCCCCCCCCN[C@H](CO)[C@H](O)c1ccc([N+](=O)[O-])cc1 [AD-2646, (2R,3R)-2-(N-tetradecylamine)-1-(4-nitrophenyl)-1,3-propanediol]
- Protein content (HL60 cells [1]; [8]): 93 µg
- cooperative effect with Taxol on total protein quantity (HL60 cells [1]; [8]): synergism
- apoptotic cells (HL60 cells [2]; HL60, 3 hours, 10 μM): 12%
- apoptotic cells (HL60 cells [2]; HL60, 3 hours, 20 μM): 18%
- apoptotic cells (HL60 cells [2]; HL60, 3 hours, 40 μM): 26%
- apoptotic cells (HL60 cells [2]; HL60, 24 hours, 10 μM): about 50%
- No. of mice in each day (Swiss mice; 1 mg/kg i.p. days 1-4, groups of 5 mice, day 1): 5
- No. of mice in each day (Swiss mice; 1 mg/kg i.p. days 1-4, groups of 5 mice, day 2): 5
- No. of mice in each day (Swiss mice; 1 mg/kg i.p. days 1-4, groups of 5 mice, day 3): 5
- No. of mice in each day (Swiss mice; 1 mg/kg i.p. days 1-4, groups of 5 mice, day 4): 5
- No. of mice in each day (Swiss mice; 1 mg/kg i.p. days 1-4, groups of 5 mice, day 5): 5
- No. of mice in each day (Swiss mice; 1 mg/kg i.p. days 1-4, groups of 5 mice, day 6): 5
- No. of mice in each day (Swiss mice; 5 mg/kg i.p. days 1-4, groups of 5 mice, day 1): 5
- No. of mice in each day (Swiss mice; 5 mg/kg i.p. days 1-4, groups of 5 mice, day 2): 5
- No. of mice in each day (Swiss mice; 5 mg/kg i.p. days 1-4, groups of 5 mice, day 3): 5
- No. of mice in each day (Swiss mice; 5 mg/kg i.p. days 1-4, groups of 5 mice, day 4): 5
- No. of mice in each day (Swiss mice; 5 mg/kg i.p. days 1-4, groups of 5 mice, day 5): 5
- No. of mice in each day (Swiss mice; 5 mg/kg i.p. days 1-4, groups of 5 mice, day 6): 5
- No. of mice in each day (Swiss mice; 10 mg/kg i.p. days 1-4, groups of 5 mice, day 1): 5
- No. of mice in each day (Swiss mice; 10 mg/kg i.p. days 1-4, groups of 5 mice, day 2): 5
- No. of mice in each day (Swiss mice; 10 mg/kg i.p. days 1-4, groups of 5 mice, day 3): 5
- No. of mice in each day (Swiss mice; 10 mg/kg i.p. days 1-4, groups of 5 mice, day 4): 5
- No. of mice in each day (Swiss mice; 10 mg/kg i.p. days 1-4, groups of 5 mice, day 5): 5
- No. of mice in each day (Swiss mice; 10 mg/kg i.p. days 1-4, groups of 5 mice, day 6): 5
- No. of mice in each day (Swiss mice; 25 mg/kg i.p. days 1-4, groups of 5 mice, day 2): 5
- No. of mice in each day (Swiss mice; 25 mg/kg i.p. days 1-4, groups of 5 mice, day 3): 5
- No. of mice in each day (Swiss mice; 25 mg/kg i.p. days 1-4, groups of 5 mice, day 4): 5
- No. of mice in each day (Swiss mice; 25 mg/kg i.p. days 1-4, groups of 5 mice, day 5): 5
- No. of mice in each day (Swiss mice; 25 mg/kg i.p. days 1-4, groups of 5 mice, day 6): 5
- No. of mice in each day (Swiss mice; 50 mg/kg i.p. days 1-4, groups of 5 mice, day 1): 5
- No. of mice in each day (Swiss mice; 50 mg/kg i.p. days 1-4, groups of 5 mice, day 2): 5

- pIC50 [5]: 5.30
- pIC50 [7]: 5.15
- pIC50 [6]: 5.40
Compound: CCCCCCNc1ccc([C@@H](O)[C@@H](CO)NCCCCCC)cc1 [AD-2665, (2R,3R)-2-(N-hexylamine)-1-(4-N-hexylaminophenyl)-1,3-propanediol]
- apoptotic cells (HL60 cells [2]; HL60, 30 min, 40 μM): 5%
- apoptotic cells (HL60 cells [2]; HL60, 3 hours, 10 μM): about 8%
- apoptotic cells (HL60 cells [2]; HL60, 3 hours, 20 μM): 26%
- apoptotic cells (HL60 cells [2]; HL60, 24 hours, 10 μM): 25%
